# Measurements taken from article PMC9021288 (Nature Communications, 2022).
# Where “and” joins values, the source holds several entries; their conditions need not be identical. Equal entries are not always repeated.
# Experiments:
# [1] = Pharmacokinetics in dogs (cassette dosing); assay type: in vivo, Beagle dogs
# Procedure: Subsequently, samples were spun down at 1640 g for 5-10 min at 4 °C within 30 min after collection and plasma was collected. […] Urine was collected following an intravenous dose in both rat and dog, allowing renal clearance to be estimated. Human renal clearance was estimated from dog renal clearance as previously described[40] and other human PK parameters were predicted using allometric scaling and/or in vitro clearance data. PK parameters were calculated by naïve pooled approach using WinNonLin software (Phoenix, version 6.3).
# [2] = 8-day Dose Range Finding (DRF) rat study; assay type: in vivo, Wistar Han rats
# Description: See the summary of the study design in Supplementary Table 31. Nine-week-old Wistar (Crl:WI (Han)) rats were obtained from Charles River Laboratories (Domaine des Oncins, Saint-Germain-Nuelles, France). […] Animals were examined daily for any altered clinical signs, body weights, and food consumption. Blood samples were taken at different timepoints after the test item administration, and toxicokinetic exposure assessed under the defined experimental conditions and analyzed using Phoenix (version 6.4 and 1.4) (Supplementary Table 32). Measurements included hematology and clinical chemistry measurements. Animals were euthanized and necropsied at the end of the dosing period. At necropsy, major organ systems and tissues were collected and weighed and then examined for gross lesions as well as for microscopic changes.
structure (smiles),measurement,setting,value
C[C@@H](CNC(=O)[C@H](O)C(C)(C)CO)NC(=O)c1cc(F)c(F)cc1F [MMV693183],Observed hepatic/ predicted hepatic,[1]; Dog,0.95
same,Observed total-renal = observed hepatic,[1]; Dog,10.5 mL/min/kg
same,Predicted hepatic plasma clearance,[1]; Dog,11.1 mL/min/kg
same,Norm. conc i.v.,"[1]; Dog, Time (hrs) 0.083333",1180 ng/mL and 892 ng/mL and 1160 ng/mL
same,Norm. conc i.v.,"[1]; Dog, Time (hrs) 0.25",732 ng/mL and 660 ng/mL and 906 ng/mL
same,Norm. conc i.v.,"[1]; Dog, Time (hrs) 0.5",414 ng/mL and 439 ng/mL and 345 ng/mL
same,Norm. conc i.v.,"[1]; Dog, Time (hrs) 1",166 ng/mL and 228 ng/mL and 178 ng/mL
same,Norm. conc i.v.,"[1]; Dog, Time (hrs) 2",52.9 ng/mL and 68.5 ng/mL and 55.6 ng/mL
same,Norm. conc i.v.,"[1]; Dog, Time (hrs) 4",28.7 ng/mL and 29.7 ng/mL and 29.8 ng/mL
same,Norm. conc i.v.,"[1]; Dog, Time (hrs) 8",14.6 ng/mL and 21.2 ng/mL and 17.8 ng/mL
same,Norm. conc i.v.,"[1]; Dog, Time (hrs) 24",2 ng/mL and 3.19 ng/mL and 2.05 ng/mL
same,Norm. conc p.o.,"[1]; Dog, Time (hrs) 0.25",815 ng/mL and 580 ng/mL and 439 ng/mL
same,Norm. conc p.o.,"[1]; Dog, Time (hrs) 0.5",485 ng/mL and 365 ng/mL and 280.5 ng/mL
same,Norm. conc p.o.,"[1]; Dog, Time (hrs) 1",132.5 ng/mL and 118.5 ng/mL and 171.5 ng/mL
same,Norm. conc p.o.,"[1]; Dog, Time (hrs) 2",29.9 ng/mL and 28.05 ng/mL and 47.05 ng/mL
same,Norm. conc p.o.,"[1]; Dog, Time (hrs) 4",15.6 ng/mL and 14.15 ng/mL and 21.05 ng/mL
same,Norm. conc p.o.,"[1]; Dog, Time (hrs) 24",1 ng/mL and 1.115 ng/mL
same,AUC0-∞,"[1]; i.v. 1 mg/kg, mean",1451 ng·h/mL
same,AUClast,"[1]; i.v. 1 mg/kg, mean",1423 ng·h/mL
same,Cmax,"[1]; i.v. 1 mg/kg, mean",1077 ng/mL
same,Vss_obs,"[1]; i.v. 1 mg/kg, mean",1.79 L/kg
same,CLtotal,"[1]; i.v. 1 mg/kg, mean, 1 mg/kg",11.5 mL/min/kg and 11.52 mL/min/kg
same,T1/2,"[1]; i.v. 1 mg/kg, mean, 1 mg/kg",4.2 h and 4.23 h
same,AUC0-∞,"[1]; p.o. 2 mg/kg, mean",1902 ng·h/mL
same,AUClast,"[1]; p.o. 2 mg/kg, mean",1844 ng·h/mL
same,Cmax,"[1]; p.o. 2 mg/kg, mean",1286 ng/mL
same,T1/2,"[1]; p.o. 2 mg/kg, mean",2.93 h
same,F,"[1]; p.o. 2 mg/kg, mean, 2 mg/kg",64% and 63.7%
same,Tmax,"[1]; p.o. 2 mg/kg, mean, 2 mg/kg",0.333 h
same,cumulative exposure vs predicted human efficacious exposure,[2]; 30 mg/kg/day group,> 30 fold
same,Liver weight,[2]; 10 and 30 mg/kg/day,Liver weight was unchanged
same,liver histology,[2]; 10 and 30 mg/kg/day,absence of liver microscopic findings
same,Liver weight,"[2]; DRF 10 mg/kg/day, Females",6.6517 g
same,Liver weight,"[2]; DRF 10 mg/kg/day, Males",9.7817 g
same,Liver weight,"[2]; DRF 30 mg/kg/day, Females (two groups)",6.4437 g and 7.2357 g
same,Liver weight,"[2]; DRF 30 mg/kg/day, Males (two groups)",10.7203 g and 9.7543 g
same,Liver weight,"[2]; DRF study, females, 10 mg/kg/day, individual animals",6.951 g and 7.042 g and 5.962 g
same,Liver weight,"[2]; DRF study, females, 30 mg/kg/day (first column headed 30), individual animals, 30 mg/kg/day",7.24 g and 5.849 g and 6.242 g
same,Liver weight,"[2]; DRF study, females, 30 mg/kg/day (second column headed 30), individual animals, 30 mg/kg/day",7.466 g and 7.43 g and 6.811 g
same,Liver weight,"[2]; DRF study, males, 10 mg/kg/day, individual animals",9.171 g and 9.562 g and 10.612 g
same,Liver weight,"[2]; DRF study, males, 30 mg/kg/day (first column headed 30), individual animals, 30 mg/kg/day",10.621 g and 11.894 g and 9.646 g
same,Liver weight,"[2]; DRF study, males, 30 mg/kg/day (second column headed 30), individual animals, 30 mg/kg/day",10.364 g and 10.082 g and 8.817 g
same,NOEL,[2]; eight days,30 mg/kg/day
same,decrease in systemic exposure day 7 vs day 1,[2]; predominantly males at 30 mg/kg/day,up to 4 fold
